The values that follow come from US20060293307A1, “Oxazolidinone derivatives as antimicrobials” (priority 2002, published 2006).

For the experiment, the system named is M. bovis ATCC 19210. Format: cell-based. Particulars: S. No. 18 NTM, Middle Brook 7H10 + OADC, 37° C., 14-21 days.

Turning to `NNC(=O)c1ccncc1` [INH], the MIC worked out at 0.25 µg/mL.

On to `CC[C@H]1OC(=O)[C@H](C)[C@@H](O[C@H]2C[C@@](C)(OC)[C@@H](O)[C@H](C)O2)[C@H](C)[C@@H](O[C@@H]2O[C@H](C)C[C@H](N(C)C)[C@H]2O)[C@](C)(OC)C[C@@H](C)C(=O)[C@H](C)[C@@H](O)[C@]1(C)O` [CLA], for which the MIC is 32 µg/mL. Under `C[C@@H]1CN(c2c(F)c(N)c3c(=O)c(C(=O)O)cn(C4CC4)c3c2F)C[C@H](C)N1` [SPAR] stands less than 0.12 µg/mL; under `CCc1cc(C(N)=S)ccn1` [ETH], 2.0 µg/mL.
